Assay results reported in patent US4530714A, “N-aliphatic and N,N-aliphatic phosphoric triamide urease inhibitors and urease inhibited urea based fertilizer compositions” (Allied Corporation, priority 1984, dated 1985).

Experiments:
urease [1] = experiment: Percent inhibition versus time in soil (FIG. 1, FIG. 2); assay type: biochemical; settings: soil at 25° C. (FIG. 1) and 35° C. (FIG. 2); compared with phenyl phosphorodiamidate
Experimental: FIG. 1 is a plot of percent inhibition versus time in soils at 25° C. for N,N-diethylphosphorictriamide, a urease inhibitor useful in the practice of this invention, and for the known urease inhibitor, phenyl phosphorodiamidate, and FIG. 2 is a plot of percent inhibition versus time in soil at 35° C. for the same compounds.

urease [2] = experiment: Soil urease inhibition efficacy test, Cazenovia silt loam (New York soil); assay type: biochemical; settings: 25° C., three days; for % Inhibition Cazenovian pH 7.3: Cazenovia silt loam pH 7.3, 800 micrograms compound and 42.8 mg urea per 20 g soil; for % Inhibition Cazenovian pH 7.0: Cazenovia silt loam pH 7.0, 200 micrograms compound per 20 g soil
Experimental: (§1) Efficacy tests were conducted to evaluate the efficacy of certain representative phosphoric triamide compounds as urease inhibitors. The inhibition tests were run in a New York soil (Cazenovia silt loam, pH 7.0 or 7.3) or in a Wisconsin Soil (Plano silt loam, pH 5.3). […] The bottle was capped with perforated aluminum foil and incubated at 25° C. for three days prior to extraction with 100 mL of a 2M potassium chloride solution containing 0.5 mg of phenylmercuric acetate. The extracts were then analyzed for remaining urea using an autoanalyzer. Percent inhibition was calculated as
(§2) % Inhibition=[1-(A-B/A-C)]×100%
(§3) where A is urea recovered from unincubated sample (urea added to soil and immediately extracted); B is urea recovered from inhibited sample; and C is urea recovered from the control (uninhibited sample).

urease [3] = experiment: Soil urease inhibition efficacy test, Plano silt loam (Wisconsin soil); assay type: biochemical; settings: Plano silt loam pH 5.3, 25° C., three days
Experimental: as §1, §2, §3

urease [4] = experiment: Long term urease inhibition, inhibited Cazenovia soil preincubated or left open 11 days before urea application; assay type: biochemical; settings: 200 micrograms compound; for % Inhibition, Preincubated for 11 days Open: allowed to volatilize for 11 days prior to urea application; for % Inhibition, Preincubated for 11 days at 25° C.: inhibited soil incubated 11 days at 25° C. prior to urea application; for % Inhibition, Preincubated for 11 days at 35° C.: inhibited soil incubated 11 days at 35° C. prior to urea application
Experimental: Efficacy tests were conducted to evaluate the efficacy of certain representative phosphoric triamide compounds as urease inhibitors. The inhibition tests were run in a New York soil (Cazenovia silt loam, pH 7.0 or 7.3) or in a Wisconsin Soil (Plano silt loam, pH 5.3). Evaluations (run in triplicate) consisted of applying 800 micrograms of the test compound in 5 mL of water and 42.8 mg of urea in 1 mL of water to 20 g of air-dry soil in a glass bottle. The bottle was capped with perforated aluminum foil and incubated at 25° C. for three days prior to extraction with 100 mL of a 2M potassium chloride solution containing 0.5 mg of phenylmercuric acetate. The extracts were then analyzed for remaining urea using an autoanalyzer. Percent inhibition was calculated as
as §2, §3
The percent inhibition observed, as determined by the means described in Example XVI except using 200 micrograms of the test compound, are set forth in Table II

[5] = Solubility in water (as needed for efficacy test); assay type: physicochemical; settings: efficacy test application
[6] = 800 micrograms compound and 42.8 mg urea per 20 g soil
[7] = 200 micrograms compound per 20 g soil

## CCN(CC)P(N)(N)=O [Compound 1, N,N-Diethylphosphoric Triamide]
Urease [1]
  duration of the urease inhibiting activity: much superior
Urease [2]
  % Inhibition Cazenovian pH 7.3: 94%

## CN(C)P(N)(N)=O [Compound 2, N,N-Dimethylphosphoric Triamide]
Urease [2]
  % Inhibition Cazenovian pH 7.3: 98%

## C=CCNP(N)(N)=O [Compound 3, N-Allylphosphoric Triamide]
Urease [2]
  % Inhibition Cazenovian pH 7.3: 93%

## CN(Cc1ccccc1)P(N)(N)=O [Compound 4, N-Benzyl-N-methylphosphoric Triamide]
Urease [2]
  % Inhibition Cazenovian pH 7.3: 96%

## NP(N)(=O)NC1CCCCC1 [Compound 5, N-Cyclohexylphosphoric Triamide]
Urease [2]
  % Inhibition Cazenovian pH 7.3: 98%

## NP(N)(=O)N1CCCCC1 [Compound 6, N-(Diaminophosphinyl)piperidine]
Urease [2]
  % Inhibition Cazenovian pH 7.3: 94%

## CC(C)NP(N)(N)=O [Compound 7, N-Isopropylphosphoric Triamide]
Urease [2]
  % Inhibition Cazenovian pH 7.3: 97%

## CCNP(N)(N)=O [Compound 8, N-Ethylphosphoric Triamide]
Urease [2]
  % Inhibition Cazenovian pH 7.3: 99%
Urease [3]; [6]
  % Inhibition Wisconsin pH 5.3: 47%
Urease [4]
  % Inhibition, Preincubated for 11 days Open: 72%
  % Inhibition, Preincubated for 11 days at 25° C.: 74%
  % Inhibition, Preincubated for 11 days at 35° C.: 55%
  % Inhibition, No Preincubation: 95%

## CCCCNP(N)(N)=O [Compound 9, N-(n-Butyl)phosphoric Triamide]
Urease [2]
  % Inhibition Cazenovian pH 7.3: 99%
Urease [3]; [6]
  % Inhibition Wisconsin pH 5.3: 52%
Urease [4]
  % Inhibition, Preincubated for 11 days Open: 78%
  % Inhibition, Preincubated for 11 days at 25° C.: 75%
  % Inhibition, Preincubated for 11 days at 35° C.: 68%
  % Inhibition, No Preincubation: 96%

## CCCCNP(N)(N)=S [Compound 10, N-(n-Butyl)thiophosphoric Triamide]
Urease [2]
  % Inhibition Cazenovian pH 7.3: 98%
Urease [3]; [6]
  % Inhibition Wisconsin pH 5.3: 95%
Urease [4]
  % Inhibition, Preincubated for 11 days Open: 94%
  % Inhibition, Preincubated for 11 days at 25° C.: 98%
  % Inhibition, Preincubated for 11 days at 35° C.: 89%
  % Inhibition, No Preincubation: 90%

## CCC(C)NP(N)(N)=O (stereo not shown) [Compound 11, N-(sec-Butyl)phosphoric Triamide]
Urease [2]
  % Inhibition Cazenovian pH 7.3: 96%
Urease [3]; [6]
  % Inhibition Wisconsin pH 5.3: 66%
Urease [4]
  % Inhibition, Preincubated for 11 days Open: 77%
  % Inhibition, Preincubated for 11 days at 25° C.: 90%
  % Inhibition, Preincubated for 11 days at 35° C.: 85%
  % Inhibition, No Preincubation: 92%

## CCCCCCCCNP(N)(N)=O [Compound 12, N-(n-Octyl)phosphoric Triamide]
Urease [2]
  % Inhibition Cazenovian pH 7.3: 98%
Urease [3]; [6]
  % Inhibition Wisconsin pH 5.3: 51%
Urease [4]
  % Inhibition, Preincubated for 11 days Open: 66%
  % Inhibition, Preincubated for 11 days at 25° C.: 39%
  % Inhibition, Preincubated for 11 days at 35° C.: 36%
  % Inhibition, No Preincubation: 95%

## CCCCCCCCCCCCNP(N)(N)=O [Compound 13, N-(n-Dodecyl)phosphoric Triamide]
Urease [2]
  % Inhibition Cazenovian pH 7.3: 81%
Urease [3]; [6]
  % Inhibition Wisconsin pH 5.3: 28%

## CCN(CC)P(N)(N)=S [Compound 14, N,N-Diethylthiophosphoric Triamide]
Urease [2]
  % Inhibition Cazenovian pH 7.3: 61%
Urease [3]; [6]
  % Inhibition Wisconsin pH 5.3: 53%

## CN(C1CCCCC1)P(N)(N)=O [Compound 15, N-Cyclohexyl-N-methylphosphoric Triamide]
Urease [2]
  % Inhibition Cazenovian pH 7.3: 92%
Urease [3]; [6]
  % Inhibition Wisconsin pH 5.3: 48%
Urease [4]
  % Inhibition, Preincubated for 11 days Open: 67%
  % Inhibition, Preincubated for 11 days at 25° C.: 78%
  % Inhibition, Preincubated for 11 days at 35° C.: 78%
  % Inhibition, No Preincubation: 80%

## CN(Cc1ccccc1)P(N)(N)=S [Compound 16, N-Benzyl-N-methylthiophosphoric Triamide]
Urease [2]
  % Inhibition Cazenovian pH 7.0: 43%
Urease [3]; [7]
  % Inhibition Wisconsin pH 5.3: 24%

## NP(N)(=S)NC1CCCCC1 [Compound 17, N-Cyclohexylthiophosphoric Triamide]
Urease [2]
  % Inhibition Cazenovian pH 7.0: 84%
Urease [3]; [7]
  % Inhibition Wisconsin pH 5.3: 58%

## CCCCCCNP(N)(N)=S [Compound 18, N-(n-Hexyl)thiophosphoric Triamide]
Urease [2]
  % Inhibition Cazenovian pH 7.0: 97%
Urease [3]; [7]
  % Inhibition Wisconsin pH 5.3: 52%

## NP(N)(=S)N1CCCC1 [Compound 19, N-(Diaminothiophosphinyl)pyrrolidine]
Urease [2]
  % Inhibition Cazenovian pH 7.0: 77%
Urease [3]; [7]
  % Inhibition Wisconsin pH 5.3: 23%

## CCC(C)NP(N)(N)=S (stereo not shown) [Compound 20, N-(sec-Butyl)thiophosphoric Triamide]
Urease [2]
  % Inhibition Cazenovian pH 7.0: 65%
Urease [3]; [7]
  % Inhibition Wisconsin pH 5.3: 51%

## CC(C)N(C(C)C)P(N)(N)=S [Compound 21, N,N-Diisopropylthiophosphoric Triamide]
[5]
  solubility in water: too insoluble in water to obtain significant data

## NP(N)(=S)N1CCCCC1 [Compound 22, N-(Diaminothiophosphinyl)piperidine]
Urease [2]
  % Inhibition Cazenovian pH 7.0: 66%
Urease [3]; [7]
  % Inhibition Wisconsin pH 5.3: 0%

## CCCCN(CCCC)P(N)(N)=S [Compound 23, N,N-Di-(n-Butyl)thiophosphoric Triamide]
Urease [2]
  % Inhibition Cazenovian pH 7.0: 67%
Urease [3]; [7]
  % Inhibition Wisconsin pH 5.3: 37%

## NP(N)(=O)Oc1ccccc1 [Phenyl Phosphorodiamidate, phenyl phosphorodiamidate, reference compound]
Urease [4]
  % Inhibition, Preincubated for 11 days Open: 50%
  % Inhibition, Preincubated for 11 days at 25° C.: 26%
  % Inhibition, Preincubated for 11 days at 35° C.: 16%
  % Inhibition, No Preincubation: 76%
